Data taken from the supplement of paper PMC13380429.

Key:
[1] = tested on: A549-ACE2 infected with SARS-CoV-2; test: cell count relative to DMSO; higher = less toxic; conditions: 24 h
Caco-2 [2] = test: cell viability relative to DMSO; higher = less toxic; conditions: 72 h
Calu-3 [3] = test: as above; conditions: 72 h
HepG2 [4] = test: as above; conditions: 72 h
U2OS [5] = test: as above; conditions: 72 h
Vero E6 [6] = test: as above; conditions: 72 h
[7] = tested on: A549-ACE2 infected with SARS-CoV-2; test: SARS-CoV-2 infection rate relative to DMSO; higher = more infection; conditions: 24 h
[8] = tested on: A549-ACE2 infected with SARS-CoV-2; test: morphology score (similarity to uninfected cells); higher = more like uninfected cells; conditions: 24 h
Caco-2 [9] = test: relative viability EC50 (midpoint between 100% and the lowest measured viability); higher = less toxic; conditions: 72 h
Calu-3 [10] = test: as above; conditions: 72 h
HepG2 [11] = test: as above; conditions: 72 h
U2OS [12] = test: as above; conditions: 72 h
Vero E6 [13] = test: as above; conditions: 72 h
Caco-2 [14] = test: drug sensitivity score (DSS) for viability; higher = more toxic; extreme values may be limits of the assay; conditions: 72 h
Calu-3 [15] = test: as above; conditions: 72 h
HepG2 [16] = test: as above; conditions: 72 h
U2OS [17] = test: as above; conditions: 72 h
Vero E6 [18] = test: as above; conditions: 72 h
A549-ACE2 = test: drug-induced phospholipidosis relative to tamoxifen; higher = more phospholipidosis

CC(C)C[C@H](NC(=O)[C@H](Cc1ccccc1)NC(=O)c1cnccn1)B(O)O [bortezomib]
Conditions	SARS-CoV-2 infection rate, [7] [%]	cell count, [1] [%]	cell viability, Caco-2 [2] [%]	cell viability, Calu-3 [3] [%]	cell viability, HepG2 [4] [%]	cell viability, U2OS [5] [%]	cell viability, Vero E6 [6] [%]	morphology score, [8]
1 nM	–	–	104	103	122	104	111	–
10 nM	–	–	20.1	26.4	59.1	63.9	66.4	–
100 nM	–	–	4.1	4.4	1.8	-0.1	3	–
0.3 µM	45	57	–	–	–	–	–	0.26
1000 nM	–	–	5.9	5	-0.2	-0.4	0.2	–
3 µM	21	30	–	–	–	–	–	0.33
10 µM	16	27	–	–	–	–	–	0.29
10000 nM	–	–	6.2	2.4	-0.3	-0.4	0.1	–
30 µM	23	24	–	–	–	–	–	0.23

Conditions	drug sensitivity score	relative viability EC50 [µM]
Caco-2 [9]	–	0.0053
Caco-2 [14]	38.6	–
Calu-3 [10]	–	0.0064
Calu-3 [15]	38.3	–
HepG2 [11]	–	0.0116
HepG2 [16]	35.9	–
U2OS [12]	–	0.0126
U2OS [17]	35.5	–
Vero E6 [13]	–	0.0132
Vero E6 [18]	35.2	–

C[C@@H]1COCCN1c1cc(=O)n2c(n1)N(Cc1cncc(Cl)c1)[C@H](C(F)(F)F)CC2 [SAR405]
Conditions	SARS-CoV-2 infection rate, [7] [%]	cell count, [1] [%]	cell viability, Caco-2 [2] [%]	cell viability, Calu-3 [3] [%]	cell viability, HepG2 [4] [%]	cell viability, U2OS [5] [%]	cell viability, Vero E6 [6] [%]	morphology score, [8]
1 nM	–	–	84.5	99.7	98.1	97.4	105	–
10 nM	–	–	91.1	97.3	105	96.8	108	–
0.1 µM	94	105	–	–	–	–	–	0.11
100 nM	–	–	80.6	109	101	99.2	104	–
0.3 µM	88	102	–	–	–	–	–	0.09
1 µM	58	114	–	–	–	–	–	0.48
1000 nM	–	–	59.7	104	76.9	96.3	96.9	–
3 µM	31	104	–	–	–	–	–	0.5
10000 nM	–	–	76.3	88.6	55.5	68.9	63.8	–

drug-induced phospholipidosis [%], A549-ACE2
Conditions	0.3 µM	0.833333 µM	3.33333 µM	6.66667 µM	10 µM	30 µM
24 h	-2.02	-6.84	10.5	23.4	28.8	39.3
48 h	1.08	-10.5	7.2	36.3	–	–
72 h	3.73	-7.79	5.27	–	–	–

Conditions	drug sensitivity score	relative viability EC50 [µM]
Caco-2 [14]	8.1	–
Calu-3 [10]	–	> 10
Calu-3 [15]	0	–
HepG2 [16]	5.2	–
U2OS [17]	2	–
Vero E6 [18]	2.2	–

CC(=O)OCC(=O)[C@@]1(O)CC[C@H]2[C@@H]3CCC4=CC(=O)C=C[C@]4(C)[C@@]3(F)[C@@H](O)C[C@@]21C [isoflupredone-acetate]
cell viability [%]
Conditions	Caco-2 [2]	Calu-3 [3]	HepG2 [4]	U2OS [5]	Vero E6 [6]
1 nM	104	92.6	102	96.4	100
10 nM	96.9	97.2	92.3	98.2	101
100 nM	97	82.4	102	94.5	96
1000 nM	103	93.2	99.2	99.4	94.5
10000 nM	102	107	104	105	107

Conditions	drug sensitivity score	relative viability EC50 [µM]
Caco-2 [9]	–	> 10
Caco-2 [14]	0	–
Calu-3 [10]	–	> 10
Calu-3 [15]	0	–
HepG2 [11]	–	> 10
HepG2 [16]	0	–
U2OS [12]	–	> 10
U2OS [17]	0	–
Vero E6 [13]	–	> 10
Vero E6 [18]	0	–

NCCCS(=O)(=O)O [tramiprosate]
cell viability [%]
Conditions	Caco-2 [2]	Calu-3 [3]	HepG2 [4]	U2OS [5]	Vero E6 [6]
1 nM	86.1	98.5	108	94.6	95.2
10 nM	94.8	95.1	97.4	99.2	95.8
100 nM	97.7	95	106	101	100
1000 nM	98.1	96.8	108	103	99.7
10000 nM	93	98.7	109	94.7	106

Conditions	drug sensitivity score	relative viability EC50 [µM]
Caco-2 [9]	–	> 10
Caco-2 [14]	0	–
Calu-3 [10]	–	> 10
Calu-3 [15]	0	–
HepG2 [11]	–	> 10
HepG2 [16]	0	–
U2OS [12]	–	> 10
U2OS [17]	0	–
Vero E6 [13]	–	> 10
Vero E6 [18]	0	–

Oc1ccc(-c2c(-c3ccccc3)nn3c(C(F)(F)F)cc(C(F)(F)F)nc23)cc1 [PHTPP]
cell viability [%]
Conditions	Caco-2 [2]	Calu-3 [3]	HepG2 [4]	U2OS [5]	Vero E6 [6]
1 nM	104	98.5	104	99.5	105
10 nM	100	94.6	95.5	96.5	109
100 nM	99.1	97.4	83.4	102	95.8
1000 nM	102	91.3	103	99.2	105
10000 nM	95.9	113	88.7	100	96.5

Conditions	drug sensitivity score	relative viability EC50 [µM]
Caco-2 [9]	–	> 10
Caco-2 [14]	0	–
Calu-3 [10]	–	> 10
Calu-3 [15]	0	–
HepG2 [11]	–	> 10
HepG2 [16]	0	–
U2OS [12]	–	> 10
U2OS [17]	0	–
Vero E6 [13]	–	> 10
Vero E6 [18]	0	–

COc1ccc(C(=O)/C(Cc2cc(OC)c(OC)c(OC)c2)=C(\C(=O)O)c2ccc3c(c2)OCO3)cc1
Conditions	SARS-CoV-2 infection rate, [7] [%]	cell count, [1] [%]	cell viability, Calu-3 [3] [%]	cell viability, HepG2 [4] [%]	cell viability, U2OS [5] [%]	cell viability, Vero E6 [6] [%]	morphology score, [8]
1 nM	–	–	91.9	102	98.9	97.1	–
10 nM	–	–	87.6	93.9	94.9	101	–
100 nM	–	–	101	95.3	97.7	104	–
0.3 µM	101	98	–	–	–	–	-0.18
1000 nM	–	–	101	95.2	96.2	109	–
3 µM	95	104	–	–	–	–	0.12
10 µM	42	82	–	–	–	–	0.6
10000 nM	–	–	94.1	65.2	57.6	104	–
30 µM	16	22	–	–	–	–	0.36

Conditions	drug sensitivity score	relative viability EC50 [µM]
Calu-3 [10]	–	> 10
Calu-3 [15]	0	–
HepG2 [16]	2.4	–
U2OS [17]	2.8	–
Vero E6 [13]	–	> 10
Vero E6 [18]	0	–
